{"source": "paper PMC7773830", "about": "“Necator americanus Ancylostoma Secreted Protein-2 (Na-ASP-2) Binds an Ascaroside (ascr#3) in Its Fatty Acid Binding Site” (Frontiers in Chemistry, 2020)", "key": {"Pry1 [1]": {"target": "T1, Pry1 (Saccharomyces cerevisiae, UniProt P47032)", "T1 construct": "made in house; host or cells: Escherichia coli BL21", "T1 sequence (P47032 20-299)": "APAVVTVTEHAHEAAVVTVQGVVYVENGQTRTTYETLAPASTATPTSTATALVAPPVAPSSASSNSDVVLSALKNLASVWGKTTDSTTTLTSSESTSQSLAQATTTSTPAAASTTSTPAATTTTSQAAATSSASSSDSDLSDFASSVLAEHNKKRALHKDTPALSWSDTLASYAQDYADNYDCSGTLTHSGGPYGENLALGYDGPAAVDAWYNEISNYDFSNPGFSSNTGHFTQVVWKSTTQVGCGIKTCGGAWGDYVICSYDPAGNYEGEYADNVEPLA", "test": "Microscale thermophoresis", "settings": "His-tagged Pry1, N/A where there is no binding, mean ± SD of three experiments", "experimental": "(§1) Microscale thermophoresis was performed using a Monolith NT.115 from Nanotemper Technologies (Munich, Germany) (Seidel et al., [2012]; Shang et al., [2012]; Zillner et al., [2012]). His-tagged protein (Pry1 or Na-ASP-2) was fluorescently labeled using the RED-tris-NTA His-tag protein labeling kit (Nanotemper Technologies). Labeled protein (Pry1 or Na-ASP-2) was subsequently added to serial dilution of unlabeled ligand (ascarosides or their fatty acid moieties) in binding buffer (20 mM Tris pH 7.5, 30 mM NaCl, 0.05% Triton X-100). Each sample was loaded into standard glass capillaries, and measurements were performed at 60% laser power setting. Dissociation constant Kd was obtained by plotting the normalized fluorescence (Fnorm) against the logarithm of ligand concentration. Experiments were performed in triplicates and the Kd model of the MO Affinity Analysis software (Nanotemper Technologies, Munich, Germany) was used for data fitting.\n(§2) Figure 5 Na-ASP-2 selectively binds ascr#3 but not oscr#10. Binding of ascarosides and their fatty acid moieties by Pry1 and Na-ASP-2 as measured by microscale thermophoresis. (A,G) Palmitic acid; (B,H) ascr#3; (C,I) oscr#10; (D,J) (R)-8-hydroxynonanoic acid; (E,K) (R, E)-8-hydroxynon-2-enoic acid; (F,L) 9-hydroxynonanoic acid. Pry1 binds palmitic acid and free hydroxylated nanonoic acids with similar affinities but binds neither the ascarosides ascr#3 and oscr#10. Na-ASP-2 binds palmitic acid, ascr#3 and free hydroxylated nanonoic acids with similar affinities but not oscr#10. The Kd values are indicated in each figure with N/A (not applicable) where there is no binding. Data represent mean ± SD of three independent experiments."}, "Na-ASP-2 [2]": {"target": "T2, Na-ASP-2 (Necator americanus, UniProt Q7Z1H1)", "T2 sequence (Q7Z1H1 entry or part of it)": "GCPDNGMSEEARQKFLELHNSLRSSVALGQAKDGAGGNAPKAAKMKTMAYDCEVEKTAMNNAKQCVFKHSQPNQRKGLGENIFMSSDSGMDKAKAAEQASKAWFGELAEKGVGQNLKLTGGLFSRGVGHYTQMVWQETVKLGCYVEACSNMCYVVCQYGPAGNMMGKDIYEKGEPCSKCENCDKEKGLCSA", "test": "Microscale thermophoresis", "format": "binding", "experimental": "as §1, §2"}, "Pry1 [3]": {"target": "T1, Pry1", "test": "[3H]-palmitic acid competition binding assay", "settings": "100 pmol Pry1; for competition with [3H]-palmitic acid for binding to Pry1, excess ligand: excess unlabeled ligand (500 pmol) vs 50 pmol [3H]-palmitic acid; for competition with [3H]-palmitic acid for binding to Pry1: unlabeled ligand vs 50 pmol [3H]-palmitic acid", "experimental": "(§3) The radioligand binding assay was performed as described previously (Im et al., [2005]; Choudhary and Schneiter, [2012]). Hundred pmol of purified untagged CAP protein (Na-ASP-2 or Pry1) in binding buffer (20 mM Tris, pH 7.5, 30 mM NaCl, 0.05% Triton X-100) was incubated for 1 h at 30 °C with different concentrations of either [^3H]-cholesterol or [^3H]-palmitic acid. Protein was removed from unbound ligand by adsorption to Q-sepharose beads (GE Healthcare, USA), the beads were washed, protein was eluted and the protein-bound radioligand was quantified by scintillation counting. For competition binding assays, specified concentrations of unlabeled cholesterol, palmitic acid or ligands, were included in the binding reaction. Non-specific binding was determined by performing the assays without the addition of protein. Statistical significance of data was analyzed by multiple t-test (GraphPad Prism, La Jolla, CA).\nFigure 4 Binding of ligands to Na-ASP-2 and Pry1. (A) Free fatty acids and ascarosides fail to compete with [^3H]-cholesterol for binding to Na-ASP-2. Binding of [^3H]-cholesterol (50 pmol) to Na-ASP-2 (100 pmol) was assessed in the presence of (50 pmol and 500 pmol) of unlabeled ascarosides or fatty acid moieties (1-5) (B) Fatty acids moieties and ascr#3 compete with [^3H]-palmitic acid for binding to Na-ASP-2. (C) Only fatty acids moieties compete [^3H]-palmitic acid for binding to Pry1. Competitive binding was tested with either 50 or 500 pmol of the unlabeled ligands and 50 pmol of [^3H]-palmitic acid for binding to 100 pmol purified Na-ASP-2 or Pry1. The ascarosides tested are (1) (ascr#3) and (2) (oscr#10) while the fatty acids are 3 [(R)-8-hydroxynonanoic acid], 4 [(R, E)-8-hydroxynon-2-enoic acid], and 5 (9-hydroxynonanoic acid). Data represent mean ± SD of 3 independent experiments. Asterisks denote statistical significance relative to the control containing only the radiolabeled ligand and either purified Na-ASP-2 or Pry1. (**p < 0.001; *p < 0.01). n.s., not significant."}, "Na-ASP-2 [4]": {"target": "T2, Na-ASP-2", "test": "[3H]-cholesterol radioligand binding and competition assay", "settings": "for competition with [3H]-cholesterol for binding to Na-ASP-2: unlabeled ligand vs 50 pmol [3H]-cholesterol, 100 pmol Na-ASP-2", "experimental": "as §3\nFigure 3 Na-ASP-2 binds both cholesterol and free palmitic acid. (A) Ligand binding of [^3H]-cholesterol to Na-ASP-2. Purified Na-ASP-2 (100 pmol) was incubated with increasing concentrations of [^3H]-cholesterol (100–400 pmol), in absence and presence of 400 pmol of unlabeled cholesterol (chol). The protein was separated from the unbound ligand by adsorption to an anion-exchange matrix and the protein-bound radioligand was quantified by scintillation counting. […] Data represent mean ± SD of 3 independent experiments. (B) Competitive binding of unlabeled cholesterol (50 or 5,000 pmol) to Na-ASP-2. Binding of [^3H]-cholesterol (50 pmol) to Na-ASP-2 (100 pmol) was assessed in the presence of the indicated concentrations of unlabeled cholesterol (chol). Each data point is the average of duplicate assays and represents the amount of [^3H]-cholesterol bound relative to a control containing no unlabeled cholesterol. (C) Ligand binding of [^3H]-palmitic acid to Na-ASP-2. Purified Na-ASP-2 (100 pmol) was incubated with increasing concentrations of [^3H]-palmitic acid (100–400 pmol), in absence and presence of 400 pmol of unlabeled palmitic acid (pal). (D) Competitive binding of unlabeled palmitic acid (50 or 5,000 pmol) to Na-ASP-2. Binding of [^3H]-palmitic acid (50 pmol) to Na-ASP-2 (100 pmol) was assessed in the presence of the indicated concentration of unlabeled palmitic acid (pal). Each data point is the average of duplicate assays and represents the amount of [^3H]-palmitic acid bound relative to a control containing only labeled palmitic acid. […]\n(§4) Figure 4 Binding of ligands to Na-ASP-2 and Pry1. […] Binding of [^3H]-cholesterol (50 pmol) to Na-ASP-2 (100 pmol) was assessed in the presence of (50 pmol and 500 pmol) of unlabeled ascarosides or fatty acid moieties (1-5) (B) Fatty acids moieties and ascr#3 compete with [^3H]-palmitic acid for binding to Na-ASP-2. […]"}, "Na-ASP-2 [5]": {"target": "T2, Na-ASP-2", "test": "[3H]-palmitic acid radioligand binding and competition assay", "settings": "for competition with [3H]-palmitic acid for binding to Na-ASP-2: 50 or 500 pmol unlabeled ligand vs 50 pmol [3H]-palmitic acid, 100 pmol Na-ASP-2", "experimental": "as §3\nFigure 3 Na-ASP-2 binds both cholesterol and free palmitic acid. (A) Ligand binding of [^3H]-cholesterol to Na-ASP-2. Purified Na-ASP-2 (100 pmol) was incubated with increasing concentrations of [^3H]-cholesterol (100–400 pmol), in absence and presence of 400 pmol of unlabeled cholesterol (chol). The protein was separated from the unbound ligand by adsorption to an anion-exchange matrix and the protein-bound radioligand was quantified by scintillation counting. […] Data represent mean ± SD of 3 independent experiments. […] Binding of [^3H]-cholesterol (50 pmol) to Na-ASP-2 (100 pmol) was assessed in the presence of the indicated concentrations of unlabeled cholesterol (chol). […] Binding of [^3H]-palmitic acid (50 pmol) to Na-ASP-2 (100 pmol) was assessed in the presence of the indicated concentration of unlabeled palmitic acid (pal). […]\nas §4"}, "Bm-VAL-1 [6]": {"target": "Bm-VAL-1", "set-up": "method as in earlier work", "settings": "ref Kelleher et al., 2014, Darwiche et al., 2016, 2018, Asojo et al., read-out: cholesterol binding affinity; cited from earlier work"}, "Hp-VAL-4": {"target": "Hp-VAL-4", "set-up": "method as in earlier work", "settings": "ref Kelleher et al., 2014, Darwiche et al., 2016, 2018, Asojo et al., read-out: cholesterol binding affinity; cited from earlier work"}, "Sm-VAL-4": {"target": "Sm-VAL-4", "set-up": "method as in earlier work", "settings": "ref Kelleher et al., 2014, Darwiche et al., 2016, 2018, Asojo et al., read-out: cholesterol binding affinity; cited from earlier work"}, "Bm-VAL-1 [7]": {"target": "Bm-VAL-1", "set-up": "method as in earlier work", "settings": "ref Kelleher et al., 2014, Darwiche et al., 2016, 2018, Asojo et al., read-out: Kd for palmitic acid; cited from earlier work"}, "Pry1 [8]": {"target": "Pry1", "set-up": "method as in earlier work", "settings": "ref Kelleher et al., 2014, Darwiche et al., 2016, 2018, Asojo et al., read-out: Kd for palmitic acid; cited from earlier work"}, "tablysin-15": {"target": "tablysin-15", "settings": "ref Kelleher et al., 2014, Darwiche et al., 2016, 2018, Asojo et al., read-out: Kd for palmitic acid; cited from earlier work"}}, "note": "Where two headings read alike, the source gives them in different places."}
{"smiles": "C[C@@H](O)CCCCCCC(=O)O", "note": "[(R)-8-hydroxynonanoic acid]", "values": [{"measurement": "Kd", "setting": "Pry1 [1]; read-out: Kd", "result": "600 ± 1.9", "unit": "µM"}, {"measurement": "Kd", "setting": "Na-ASP-2 [2]", "result": "500 ± 2.3", "unit": "µM"}]}
{"smiles": "C[C@H](CCCC/C=C/C(=O)O)O[C@@H]1O[C@@H](C)[C@H](O)C[C@H]1O", "note": "[ascr#3]", "values": [{"measurement": "Kd", "setting": "Pry1 [1]", "result": "does not bind"}, {"measurement": "Kd", "setting": "Na-ASP-2 [2]", "result": 142, "unit": "µM"}, {"measurement": "competition with [3H]-palmitic acid for binding to Pry1, excess ligand", "setting": "Pry1 [3]", "result": "could not be competed"}, {"measurement": "competition with [3H]-palmitic acid for binding to Pry1", "setting": "Pry1 [3]", "result": "neither ascr#3 (1) nor oscr#10 (2) bound"}, {"measurement": "competition with [3H]-cholesterol for binding to Na-ASP-2", "setting": "Na-ASP-2 [4]", "result": "neither ascarosides [ascr#3 (1) and oscr#10 (2)] nor fatty acids (3-5) competed"}, {"measurement": "competition with [3H]-palmitic acid for binding to Na-ASP-2", "setting": "Na-ASP-2 [5]", "result": "competed"}]}
{"smiles": "O=C(O)CCCCCCCCO", "note": "[9-hydroxynonanoic acid]", "values": [{"measurement": "Kd", "setting": "Pry1 [1]; read-out: Kd", "result": "650 ± 1.7", "unit": "µM"}, {"measurement": "Kd", "setting": "Na-ASP-2 [2]", "result": "230 ± 2.5", "unit": "µM"}]}
{"smiles": "C[C@@H]1O[C@@H](OCCCCCCCCC(=O)O)[C@H](O)C[C@H]1O", "note": "[oscr#10]", "values": [{"measurement": "Kd", "setting": "Pry1 [1]", "result": "does not bind"}, {"measurement": "Kd", "setting": "Na-ASP-2 [2]; microscale thermophoresis, His-tagged Na-ASP-2, N/A where there is no binding, mean ± SD of three experiments", "result": "does not bind"}, {"measurement": "competition with [3H]-palmitic acid for binding to Pry1, excess ligand", "setting": "Pry1 [3]", "result": "could not be competed"}, {"measurement": "competition with [3H]-palmitic acid for binding to Pry1", "setting": "Pry1 [3]", "result": "neither ascr#3 (1) nor oscr#10 (2) bound"}, {"measurement": "competition with [3H]-cholesterol for binding to Na-ASP-2", "setting": "Na-ASP-2 [4]", "result": "neither ascarosides [ascr#3 (1) and oscr#10 (2)] nor fatty acids (3-5) competed"}]}
{"smiles": "C[C@@H](O)CCCC/C=C/C(=O)O", "note": "[(R,E)-8-hydroxynon-2-enoic acid, (R, E)-8-hydroxynon-2-enoic acid]", "values": [{"measurement": "Kd", "setting": "Pry1 [1]; read-out: Kd", "result": "900 ± 0.9", "unit": "µM"}, {"measurement": "Kd", "setting": "Na-ASP-2 [2]", "result": "290 ± 2", "unit": "µM"}]}
{"smiles": "CC(C)CCC[C@@H](C)[C@H]1CC[C@H]2[C@@H]3CC=C4C[C@@H](O)CC[C@]4(C)[C@H]3CC[C@]12C", "note": "[cholesterol]", "values": [{"measurement": "Kd", "setting": "Bm-VAL-1 [6]", "result": 0.9, "unit": "µM"}, {"measurement": "Kd", "setting": "Hp-VAL-4", "result": 1.53, "unit": "µM"}, {"measurement": "Kd", "setting": "Sm-VAL-4", "result": 2.4, "unit": "µM"}, {"measurement": "Kd", "setting": "Na-ASP-2 [4]", "result": 2.1, "unit": "µM"}, {"measurement": "competition with [3H]-cholesterol for binding to Na-ASP-2", "setting": "Na-ASP-2 [4]", "result": "reduced binding of the radioligand"}]}
{"smiles": "CCCCCCCCCCCCCCCC(=O)O", "note": "[palmitic acid, reference compound]", "values": [{"measurement": "Kd", "setting": "Pry1 [1]; read-out: Kd", "result": "120 ± 1.2", "unit": "µM"}, {"measurement": "Kd", "setting": "Na-ASP-2 [2]", "result": "220 ± 1", "unit": "µM"}, {"measurement": "Kd", "setting": "Na-ASP-2 [5]", "result": 95, "unit": "µM"}, {"measurement": "competition with [3H]-palmitic acid for binding to Na-ASP-2", "setting": "Na-ASP-2 [5]", "result": "reduced"}, {"measurement": "Kd", "setting": "Bm-VAL-1 [7]", "result": 83, "unit": "µM"}, {"measurement": "Kd", "setting": "Pry1 [8]", "result": 112, "unit": "µM"}, {"measurement": "Kd", "setting": "tablysin-15", "result": 94, "unit": "µM"}]}
